Three molecules from patent US5220042A, “1,4-benzoquinone derivatives and benzene derivatives, and process for preparing the same” (priority 1984, dated 1993) can be followed below.

Where two headings read alike, the source gives them in different places.

Common to all, as to type: cell-based, guinea pig (Hartley strain)
Test [1] deals with T1, 5-lipoxygenase (Cavia porcellus, UniProt A0A286X958).
T1 construct: endogenous in cells; host or cells: guinea pig (Hartley strain) casein-elicited peritoneal exudate cells, intact cell suspension
T1 sequence (A0A286X958 1-674): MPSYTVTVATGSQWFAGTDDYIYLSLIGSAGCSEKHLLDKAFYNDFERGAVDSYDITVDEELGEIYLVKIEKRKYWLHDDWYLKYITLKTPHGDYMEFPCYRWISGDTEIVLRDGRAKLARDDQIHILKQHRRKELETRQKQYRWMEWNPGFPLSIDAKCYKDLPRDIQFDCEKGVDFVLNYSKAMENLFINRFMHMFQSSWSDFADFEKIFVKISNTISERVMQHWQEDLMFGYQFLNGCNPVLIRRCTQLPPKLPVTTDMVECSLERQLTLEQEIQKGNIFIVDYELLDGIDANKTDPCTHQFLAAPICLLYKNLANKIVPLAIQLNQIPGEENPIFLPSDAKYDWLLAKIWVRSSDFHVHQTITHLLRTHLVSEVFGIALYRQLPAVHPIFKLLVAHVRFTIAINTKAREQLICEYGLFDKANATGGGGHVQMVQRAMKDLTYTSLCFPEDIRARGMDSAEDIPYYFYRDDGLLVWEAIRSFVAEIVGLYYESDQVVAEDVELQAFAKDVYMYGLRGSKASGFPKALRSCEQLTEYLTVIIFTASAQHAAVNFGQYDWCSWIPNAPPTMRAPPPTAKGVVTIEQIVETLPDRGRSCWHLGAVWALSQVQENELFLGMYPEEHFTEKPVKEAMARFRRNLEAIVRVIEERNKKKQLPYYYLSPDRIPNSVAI
The experiment in a line: 5-Lipoxygenase inhibitory activity (conversion of 14C-arachidonic acid to 5-HETE) in guinea pig peritoneal exudate cells. As to conditions: read-out: inhibition ratio (%) of 5-lipoxygenase activity; for inhibition at 0.3 µM: concentration 3 × 10^-7 M; for inhibition at 1 µM: concentration 10^-6 M; for inhibition at 0.1 µM: concentration 10^-7 M. How it is done: 5-Lipoxygenase inhibitory activity of the present compounds was determined by a method according to procedures described in "J. Biol. Chem., Vol. 256, pages 4156-4159, (1981, Ibid. Vol. 258, pages 5754-5758 (1983).
(1) Preparation of Test Cells
A guinea pig (Hartley strain) (500-650 g body weight) was intraperitoneally administered with 2%-casein solution in 3/50 the volume of body weight. 14 Hours after the administration, the animal was sacrificed by bleeding and the peritoneal cavity was washed with Dulbecco's phosphate buffered saline (PBS) containing 3 U/ml of heparin and the exudate cells were harvested. The sample of cells was washed twice with Dulbecco's PBS (-), then the cells were suspended in Dulbecco's PBS (-), containing 1 mM of calcium chloride and 5.5 mM of glucose, so as to make a suspension having the concentration of 2.5×10^7 cells/ml.
To 0.2 ml of the above-mentioned cell suspension was added 10^-5 M of Indomethacine, and incubated at 30° C. for 2 minutes. Each of the appropriate concentrations of test compounds was added to the suspension respectively, further incubated for 2 minutes. Next, 10 μm of Ionophore A23187 (manufactured by Calbiochem-Behring, San Diego, Calif., U. S. A) was added to the suspension, further, 10 μm of ^14 C-arachidonic acid (manufactured by Amersham Japan, Ltd., Tokyo, Japan) was added and initiated the reaction. 3 Minutes after the initiation of the reaction, 0.1 ml of 0.2M-citric acid was added so as to terminate the reaction. 1.2 Milliliters of ethyl acetate was added to the reaction mixture and shaked for 5 minutes. The reaction mixture was centrifuged at 3,000 rpm for 5 minutes so as to separate the organic layer from the aqueous layer. 1 Milliliter of the organic layer (the upper layer) was dehydrated by passing through a mini-column packed with anhydrous sodium sulfate. The dehydrated organic layer was dried under nitrogen gas stream. The residue obtained was dissolved in ethyl acetate, and the total amount of the ethyl acetate solution was spotted onto thin layer chromochromatography (TCL) plate (Art. 11845 manufactured by E. Merck A. G.). The TCL was carried out with a mixed solvent of diethyl ether:petroleum:ether:acetic acid (50:50:1 volume/volume), then the radioactive metabolites on the plate were detected by using "Ultrafilm ^3 H" (a trademark for a X-ray film, manufactured by LKB Co.). Each fractions corresponding to the metabolites was scraped in to a scintillation vial, and 5 ml of "Scintilator ACS-II" (manufactured by Amersham Japan, Ltd.), was added then the radio-activity was determined by means of a liquid scintillation counter.

Test [2] relates to histamine release from lung fragments. As to the kind of experiment: Inhibition of histamine release from sensitized guinea pig lung fragments. Particulars: Cavia porcellus, read-out: Inhibition ratio (%) Histamine; for inhibition at 3 µM: Table 2, dose 3 μM; for inhibition at 30 µM: Table 2, dose 30 μM. How it is done:
Inhibitory activities on the release of SRS-A and histamine of the present compounds were determined.
A male guinea pig (Hartley strain) (body weight: about 300 g) was sensitized by a method according to P. Anderson: "Int. Archs. Allergey appln. Immunol., Vol. 64, pages 249-258 (1981). Thus, 30 mg/kg of cyclophosphamide was intraperitoneally administered to the guinea pig, and 2 days after 1 microgram of ovalbumin (manufactured by Sigma Chemical Co., St. Louis, Mo. U. S. A.) together with 10 mg of aluminium hydroxide gel were intraperitoneally administered so as to have the animal sesitized.
50 Days after the sesitization, the animal was killed by exsanguination, and the lung was isolated from the animal and was perfused with 20 ml of Tyrode's solution, then immersed in an ice-cooled Tyrode's solution. The parenchyma of the lung was cut by using McIlwain-type tissue chopper to make it into fragments of lung having 2 mm square and the fragments were washed with Tyrode's solution. 400 Milligrams of sectiles of lung were suspended in 3.6 ml of Tyrode's solution, and this suspension was preincubated at 37° C. for 5 minutes, then 4 microliters of dimethyl sulfoxide solution of the test compound, in the case of control 4 microliters of dimethyl sulfoxide alone was added to the suspension. 5 Minutes after, 0.4 ml of 100 micrograms/ml of ovalbumin solution added so as to release SRS-A for 10 minutes. The suspension was ice-cooled and filtered through gauze, the filtrate was centrifuged at 2,000 rpm for 10 minutes and the supernatant was collected. The supernatant was stored in freezed state at -80° C. until bio-assay was conducted.
Amounts of SRS-A and histamine contained in the supernatant were determined by bio-assay using ileum of guinea pig.
A piece of the ileum (2-3 cm of length) positioned from 15-25 cm from the opening portion of ileocecum was isolated from a male guinea pig (Hartley strain) (body weight: 400-600 g) which was fasted for 24 hours. The piece of ileum was hanged vertically in a Magnus tube which was filled with 10 ml of Tyrode's solution containing 10^-7 M of atropine sulfate under air stream conditions. The isotonic contraction of the piece of the ileum was measured at 0.5 g of load by using an isotonic transducer "TD-112S" (manufactured by Nihon Koden Co., Ltd.). The measurements were carried out after the reaction to histamine of the piece of ileum was kept constant. Bioassay of histamine was measured by using the value of contraction shown in 30 seconds after the addition of the supernatant. Bioassay of on SRS-A was measured by using the value of contraction shown at 2 minutes after the addition of the supernatant in the presence of 10^-6 M of pyrilamine (manufactured by Sigma Chemical Co.), and compared with the standard curve of crude SRS-A released from the fragments of the lung.

Test [3] has as its system SRS-A release from lung fragments. The experiment in a line: Inhibition of SRS-A release from sensitized guinea pig lung fragments. As to conditions: Cavia porcellus. The procedure, abridged:
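Lung fragments from ovalbumin-sensitized male Hartley guinea pigs were preincubated 5 min at 37 °C in Tyrode's, given compound in DMSO for 5 min, then challenged with ovalbumin for 10 min. Released histamine was bioassayed by guinea pig ileum contraction at 30 s. SRS-A was read at 2 min with 10^-6 M pyrilamine against a crude SRS-A standard curve.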

Where [4] appears, read: Table 2, dose 3 μM, read-out: Inhibition ratio (%) SRS-A.
Setting [5] is: Table 2, dose 30 μM, read-out: Inhibition ratio (%) SRS-A.

`COC1=CC(=O)C(OC)=C(CCCCCCCCCCC2=C(OC)C(=O)C=C(OC)C2=O)C1=O` [Test Compound No. 14, 2,2'-Decamethylenebis(3,6-dimethoxy-1,4-benzoquinone)]: in test [1], the inhibition at 0.3 µM is 78%, the inhibition at 1 µM came out at 89% and the inhibition at 0.1 µM is 34%. Further, in test [2], the inhibition at 3 µM was -12.6% and the inhibition at 30 µM is -23.5%. Also, the inhibition at 3 µM in test [3] (setting [4]) was determined as 4.5%. Further, in test [3] (setting [5]), the inhibition at 30 µM came to 29.2%.
Regarding `COC1=CC(=O)C(OC)=C(CCCCCC2=C(OC)C(=O)C(C)=C(OC)C2=O)C1=O` [Test Compound No. 18, 2,5-Dimethoxy-3-methyl-6-[5-(2,5-dimethoxy-1,4-benzoquinon-3-yl)pentyl]-1,4-benzoquinone], in test [1], the inhibition at 0.3 µM came out at 33%, the inhibition at 1 µM came out at 53% and the inhibition at 0.1 µM came to 17%. In test [2], the inhibition at 3 µM came out at 14.4% and the inhibition at 30 µM was 8.3%. Further, the inhibition at 3 µM in test [3] (setting [4]) came out at 62.9%. The inhibition at 30 µM in test [3] (setting [5]) was determined as 91.9%.
As for `COC1=CC(=O)C(OC)=C(CCCCCCCC2=C(OC)C(=O)C=C(OC)C2=O)C1=O` [Test Compound No. 11, 2,2'-Heptamethylenebis(3,6-dimethoxy-1,4-benzoquinone)], the inhibition at 0.3 µM in test [1] amounted to 64%. Moreover, the inhibition at 1 µM in test [1] came to 88%. The inhibition at 0.1 µM in test [1] was found to be 44%. Besides, the inhibition at 3 µM in test [2] is -8.4%; in test [3] (setting [4]) it was 32.5%; in test [3] (Table 2B, 3 μM, read-out: Inhibitory activities on SRS-A (%)), 32.5%. The inhibition at 30 µM in test [2] is -3.6%; in test [3] (setting [5]) it was 85.7%; in test [3] (Table 2B, 30 μM, read-out: Inhibitory activities on SRS-A (%)), 85.7%.
